Reference: PMC7881012, “Human ACE2 peptide-mimics block SARS-CoV-2 pulmonary cells infection” (Communications Biology, 2021)
Like-named read-outs stand apart in the source and are kept apart here. Square brackets hold non-standard residues; d marks the D form. Peptide text beside a SMILES is read from it. hTyr = N[C@@H](CCc1ccc(O)cc1)C(=O)O

Tests used:
[1] = Helical content by circular dichroism; type: physicochemical; conditions: 60 µM peptide, 50 mM sodium phosphate buffer pH 7.4, 25 °C, DichroWeb CDSSTR deconvolution
Source text: The conformation of synthesized peptides in aqueous solution was investigated by circular dichroism (CD) spectroscopy. […] The deconvolution of the CD spectra using DichroWeb[25] allowed us to estimate the helical population for each peptide, which is reported in Table 1. Overall, an excellent agreement was observed between the Agadir-computed values and the experimental helical population inferred from CD data. […] The introduction of a proline residue in peptide P5 has a strong destabilizing effect on helical conformation (17%) whereas Leu/hTyr substitution only led to a slight decrease of the helical content (P7 versus P6 and P10 versus P8).
Fig. 2 Far-UV CD spectra of synthesized peptides. […] CD measurements are reported as molar ellipticity per residue.
CD spectra were recorded on a Jasco J-815 CD spectropolarimeter equipped with a Peltier temperature controller. Data were obtained at 25 °C over a wavelength range between 185 nm and 270 nm, using a wavelength interval of 0.2 nm and a scan rate of 20 nm min^−1. Peptide samples were prepared at a concentration of 60 µM in 50 mM sodium phosphate buffer, pH 7.4, in a quartz cell of 1 mm path length. CD experiments were processed and plotted with R program. CD spectra were analyzed using DICHROWEB web server and CDSSTR deconvolution algorithm.

[2] = molecular target: SARS-CoV-2 spike RBD (Fc-tagged 2019-nCoV RBD-SD1) (Severe acute respiratory syndrome coronavirus 2, UniProt P0DTC2); experiment: biochemical; type: binding; conditions: for kon: read-out: ka, association constant; for koff: read-out: kdis, dissociation constant; for Kd: Table 1 of the earlier manuscript version, quoted by Reviewer #2, superseded
[3] = tested on: Vero-E6 cells; conditions: for toxicity in Vero-E6: MTT 0.1-10 µM and annexin-V/PI 10 µM, 24, 48 or 72 h (Fig. 3c)
[4] = tested on: SARS-CoV-2 clinical isolate SARS-CoV-2/PSL2020 in Calu-3 cells; conditions: clinical isolate /PSL2020 in Calu-3 cells, 48 h
[5] = tested on: SARS-CoV-2 clinical isolate SARS-CoV-2/PSL2020 in Vero-E6 cells; conditions: for % Inhibition, Moyenne / % Inhibition, Q2 (Median): clinical isolate /PSL2020 in Vero-E6 cells, 48 h, 10 µM; for % Inhibition of SARSCoV-2 replication at 10 μM: mean of at least three independent experiments
[6] = HPLC retention time (LC-MS method B); type: physicochemical; conditions: method B: X-Select CSH C18 XP, 0.1% formic acid water/acetonitrile, 5-100% B in 3.2 min, 1.8 mL min^−1, 40 °C; used as indicator of hydrophobicity
[7] = tested on: Vero-E6 cells; conditions: 10 µM
[8] = tested on: Calu-3 cells; conditions: 10 μM (150 times the IC50); MTT and annexin-V/PI, 24, 48 or 72 h (Fig. 3f)
[9] = tested on: SARS-CoV-2 clinical isolate SARS-CoV-2/PSL2020 in Calu-3 cells; type: cell-based; conditions: for efficacy in reducing SARS-CoV-2 viral titers: pulmonary cells, 1 µM
[10] = tested on: Calu-3 cells
[11] = BLI EXP1, sample conc. ACE2 10 nM, P8 100 nM, P9 and P10 1000 nM
[12] = BLI EXP2, sample conc. ACE2 100 nM, P8 1000 nM, P9 and P10 1111 nM
[13] = BLI EXP3, sample conc. ACE2 100 nM, P9 10000 nM, P10 1000 nM
[14] = EXP1, peptide 10 µM, 24 h (0 µM: 16%)
[15] = EXP1, peptide 10 µM, 48 h (0 µM: 18%)
[16] = EXP1, peptide 10 µM, 72 h (0 µM: 23%)
[17] = EXP2, peptide 10 µM, 24 h (0 µM: 13%)
[18] = EXP2, peptide 10 µM, 48 h (0 µM: 17%)
[19] = EXP2, peptide 10 µM, 72 h (0 µM: 20%)
[20] = EXP3, peptide 10 µM, 24 h (Vehicle: 15%)
[21] = EXP3, peptide 10 µM, 48 h (Vehicle: 18%)
[22] = EXP3, peptide 10 µM, 72 h (Vehicle: 22%)

## CSCC[C@H](NC(=O)[C@H](Cc1ccccc1)NC(=O)[C@H](CCCCN)NC(=O)[C@H](CC(=O)O)NC(=O)[C@H](CC(C)C)NC(=O)[C@H](Cc1ccccc1)NC(=O)[C@@H](NC(=O)[C@H](CCCCN)NC(=O)[C@H](CCc1ccc(O)cc1)NC(=O)[C@H](CCC(N)=O)NC(=O)[C@H](CCC(=O)O)NC(=O)[C@H](CCC(=O)O)NC(=O)[C@H](CC(C)C)NC(=O)[C@H](C)NC(=O)[C@@H](N)CO)[C@@H](C)O)C(=O)N[C@@H](Cc1c[nH]cn1)C(=O)N[C@@H](CCC(=O)O)C(=O)N[C@@H](CC(C)C)C(=O)N[C@@H](CCC(=O)O)C(=O)N[C@@H](CC(=O)O)C(=O)N[C@@H](CC(C)C)C(=O)N[C@@H](CC(C)C)C(=O)N[C@@H](Cc1ccc(O)cc1)C(=O)N[C@@H](CCC(N)=O)C(=O)N[C@@H](CC(C)C)C(=O)N[C@@H](CO)C(=O)N[C@@H](CC(C)C)C(N)=O [P9] (H-SALEEQ[hTyr]KTFLDKFMHELEDLLYQLSL-NH2)
[1]
  Experimental helical content%: 53%
[2]; [11]
  kon: 1020 M⁻¹ s⁻¹
  koff: < 1e-07 s⁻¹
[2]; [12]
  kon: 1100 M⁻¹ s⁻¹
  koff: < 1e-07 s⁻¹
[2]; [13]
  kon: 254 M⁻¹ s⁻¹
  koff: < 1e-07 s⁻¹
[2]
  Kd: < 1 nM
[3]; 48 h, 10 µM
  Cell viability (MTT): 95%
[3]
  toxicity in Vero-E6: devoid of toxicity
[4]
  IC50: 53 nM
[5]
  % Inhibition, Moyenne: 94.5%
  % Inhibition, Q2 (Median): 94.5%
[6]
  RT, HPLC retention time: 2,31 min
[7]; 24 h, EXP1, flow cytometry
  Cell death (AnnV+PI): 3.3%
[7]; 24 h, EXP2, flow cytometry
  Cell death (AnnV+PI): 4.72%
[7]; 24 h, EXP3, flow cytometry
  Cell death (AnnV+PI): 3.62%
[7]; 48 h, EXP1, flow cytometry
  Cell death (AnnV+PI): 9%
[7]; 48 h, EXP2, flow cytometry
  Cell death (AnnV+PI): 7%
[7]; 48 h, EXP3, flow cytometry
  Cell death (AnnV+PI): 8%
[7]; 72 h, EXP1, flow cytometry
  Cell death (AnnV+PI): 4.4%
[7]; 72 h, EXP2, flow cytometry
  Cell death (AnnV+PI): 2.34%
[7]; 72 h, EXP3, flow cytometry
  Cell death (AnnV+PI): 2.25%
[8]
  cytotoxicity in uninfected Calu-3 cells: no cytotoxicity
[9]
  SARSCoV-2 virus titer at 1 μM (PFU mL^−1) on Calu-3: 0 PFU mL^−1
  efficacy in reducing SARS-CoV-2 viral titers: 100%
[10]; [14]
  Cell death (AnnV+PI): 21%
[10]; [15]
  Cell death (AnnV+PI): 19%
[10]; [16]
  Cell death (AnnV+PI): 19%
[10]; [17]
  Cell death (AnnV+PI): 16%
[10]; [18]
  Cell death (AnnV+PI): 19%
[10]; [19]
  Cell death (AnnV+PI): 23%
[10]; [20]
  Cell death (AnnV+PI): 20%
[10]; [21]
  Cell death (AnnV+PI): 20%
[10]; [22]
  Cell death (AnnV+PI): 22%

## H-SALEEQLKTFLDKFLHELEDLLYQLAL-NH2 [P3]
[1]
  Experimental helical content%: 64%
[5]
  % Inhibition of SARSCoV-2 replication at 10 μM: 4%
  % Inhibition, Moyenne: 3.9%
  % Inhibition, Q2 (Median): 3.3%
[6]
  RT, HPLC retention time: 2,53 min

## Ac-SALEEQLKTFLDKFLHELEDLLYQLAL-NH2 [P4]
[1]
  Experimental helical content%: 70%
[5]
  % Inhibition of SARSCoV-2 replication at 10 μM: 24%
  % Inhibition, Moyenne: 24.0%
  % Inhibition, Q2 (Median): 16.9%
[6]
  RT, HPLC retention time: 2,69 min

## H-SALEEQLKTFLDKFLHELEDPLYQLAL-NH2 [P5]
[1]
  Experimental helical content%: 17%
[5]
  % Inhibition of SARSCoV-2 replication at 10 μM: 27%
  % Inhibition, Moyenne: 26.6%
  % Inhibition, Q2 (Median): 20.4%
[6]
  RT, HPLC retention time: 2,16 min

## CSCC[C@H](NC(=O)[C@H](Cc1ccccc1)NC(=O)[C@H](CCCCN)NC(=O)[C@H](CC(=O)O)NC(=O)[C@H](CC(C)C)NC(=O)[C@H](Cc1ccccc1)NC(=O)[C@@H](NC(=O)[C@H](CCCCN)NC(=O)[C@H](CCc1ccc(O)cc1)NC(=O)[C@H](CCC(N)=O)NC(=O)[C@H](CCC(=O)O)NC(=O)[C@H](CCC(=O)O)NC(=O)[C@H](CC(C)C)NC(=O)[C@H](C)NC(=O)[C@@H](N)CO)[C@@H](C)O)C(=O)N[C@@H](Cc1c[nH]cn1)C(=O)N[C@@H](CCC(=O)O)C(=O)N[C@@H](CC(C)C)C(=O)N[C@@H](CCC(=O)O)C(=O)N[C@@H](CC(=O)O)C(=O)N[C@@H](CC(C)C)C(=O)N[C@@H](CC(C)C)C(=O)N[C@@H](Cc1ccc(O)cc1)C(=O)N[C@@H](CCC(N)=O)C(=O)N[C@@H](CC(C)C)C(=O)N[C@@H](C)C(=O)N[C@@H](CC(C)C)C(N)=O [P10] (H-SALEEQ[hTyr]KTFLDKFMHELEDLLYQLAL-NH2)
[1]
  Experimental helical content%: 56%
[2]; [11]
  kon: 2490 M⁻¹ s⁻¹
  koff: < 1e-07 s⁻¹
[2]; [12]
  kon: 1410 M⁻¹ s⁻¹
  koff: < 1e-07 s⁻¹
[2]; [13]
  kon: 1430 M⁻¹ s⁻¹
  koff: < 1e-07 s⁻¹
[2]
  Kd: < 1 nM
[3]; 72 h, 1 µM
  Cell viability (MTT): 96%
[3]
  toxicity in Vero-E6: devoid of toxicity
[4]
  IC50: 42 nM
[5]
  % Inhibition of SARSCoV-2 replication at 10 μM: 95%
  % Inhibition, Moyenne: 95.1%
  % Inhibition, Q2 (Median): 95.1%
[6]
  RT, HPLC retention time: 2,34 min
[7]; 24 h, EXP1, flow cytometry
  Cell death (AnnV+PI): 4%
[7]; 24 h, EXP2, flow cytometry
  Cell death (AnnV+PI): 5.38%
[7]; 24 h, EXP3, flow cytometry
  Cell death (AnnV+PI): 5.49%
[7]; 48 h, EXP1, flow cytometry
  Cell death (AnnV+PI): 7%
[7]; 48 h, EXP2, flow cytometry
  Cell death (AnnV+PI): 5.69%
[7]; 48 h, EXP3, flow cytometry
  Cell death (AnnV+PI): 6.33%
[7]; 72 h, EXP1, flow cytometry
  Cell death (AnnV+PI): 4%
[7]; 72 h, EXP2, flow cytometry
  Cell death (AnnV+PI): 2.55%
[7]; 72 h, EXP3, flow cytometry
  Cell death (AnnV+PI): 3%
[8]
  cytotoxicity in uninfected Calu-3 cells: no cytotoxicity
[9]
  SARSCoV-2 virus titer at 1 μM (PFU mL^−1) on Calu-3: 0 PFU mL^−1
  efficacy in reducing SARS-CoV-2 viral titers: 100%
[10]; [14]
  Cell death (AnnV+PI): 23%
[10]; [15]
  Cell death (AnnV+PI): 19%
[10]; [16]
  Cell death (AnnV+PI): 23%
[10]; [17]
  Cell death (AnnV+PI): 17%
[10]; [18]
  Cell death (AnnV+PI): 20%
[10]; [19]
  Cell death (AnnV+PI): 22%
[10]; [20]
  Cell death (AnnV+PI): 19%
[10]; [21]
  Cell death (AnnV+PI): 19%
[10]; [22]
  Cell death (AnnV+PI): 19%

## H-SALEEQLKTFLDKFLHELEDLLYQLALAL-NH2 [P6]
[1]
  Experimental helical content%: 80%
[5]
  % Inhibition, Moyenne: 6.5%
  % Inhibition, Q2 (Median): 4.9%
[6]
  RT, HPLC retention time: 2,74 min

## H-AHLFSYLTTKEEQDNDAIFLQEFSKES-NH2 [P1scr, reference compound]
[1]
  Experimental helical content%: 8%
[5]
  % Inhibition of SARSCoV-2 replication at 10 μM: 7%
  % Inhibition, Moyenne: 6.7%
  % Inhibition, Q2 (Median): 6.4%
[6]
  RT, HPLC retention time: 1,54 min

## H-SALEEQLKTFLDKFLHELEDLLYQLSL-NH2 [P2]
[1]
  Experimental helical content%: 70%
[5]
  % Inhibition of SARSCoV-2 replication at 10 μM: 16%
  % Inhibition, Moyenne: 16.0%
  % Inhibition, Q2 (Median): 20.0%
[6]
  RT, HPLC retention time: 1.47 min
